What was measured:
[1] = Serum lipids on day 28, (db-/db-) mice; format: in vivo
Protocol: (§1) Methods: Mice were obtained from Jackson Laboratories and acclimated to the facility. At about 5 weeks of age, mice were prospectively randomized into groups and assigned to the treatment conditions shown in FIG. 1. Topical treatments were applied in a thin film to the right flank skin without occlusive dressings; subcutaneous injections were also administered to the right flank. […] They were housed in the same room, in 11 cages according to group, and fed ad libitum. Skin tissue was sampled and serum lipids tested on day 28. Tissue was fixed in formalin and stained with hematoxylin and eosin.
FIG. 5 charts the triglyceride and total cholesterol results (mg/dl) for the topical treatment conditions as follows: Group 1=C, 3=D, 4=E, 5=F, 6=G, 10=H, 11=I.

[2] = Weight gain and condition, 4-week repeat-dose trial in (db-/db-) mice; format: in vivo
Protocol: A randomized, controlled, repeat-dose, 4-week trial was conducted on (db−/db−) mice, which are defective for the leptin receptor (Jackson Laboratories). These mice are genetically obese, dyslipidemic, and diabetic.
as §1

[3] = Projected systemic dose, mouse (FIG. 12); format: in vivo; details: topical, 100% serum bioavailability assumed
Description: (§2) FIG. 12 compares various topical doses of latanoprost in mouse, rat, and human, with respect to projected systemic dose. All calculations assume once-daily dosing and 100% serum bioavailability. The derivation of each dose is set forth based on the animal body weight, drug concentration, and drug volume. Finally, doses are scaled allometrically for body surface area (mg/m^2/d), as is appropriate for most low-molecular-weight molecules.

subcutaneous fat [4] = test: Histologic sections of skin and subcutaneous fat, (db-/db-) mice; format: in vivo; details: for adipocytes and adipose layer, treated (right) flank / adipocytes and adipose layer, untreated (left) flank: day 28; for local versus systemic effect by histology: topical, concentration up to 0.3%
Protocol: as §1
All sections are shown at the same magnification (scale bar at top right=640 microns). The surface of the skin is oriented toward the top and left of each panel. Arrows in each section denote the panniculus carnosus, an anatomic layer that separates the first layer of subdermal fat from deeper, subpannicular fat (separation artifact is commonly seen deep to the panniculus and is not an in vivo process).

[5] = obese adults, 120 mg three times daily, after two years; cited from earlier work
[6] = Serum lipid levels on day 29, ZDF rats; format: in vivo
Protocol: (§3) Methods: Male ZDF rats, approximately 8 weeks old, were obtained from Jackson Laboratories and acclimated to the facility. There were 3 animals per treatment arm. Test articles were applied in a thin film to the right flank without occlusive dressings, at 0.3 ml daily for 28 days. Rats were fed ad libitum and housed in the same room in 4 cages according to group. […] Food consumption was measured by residual weight of chow. Animals were fasted overnight prior to day 29, and Oral Glucose Tolerance Tests were conducted on day 29 (1 g glucose per kg body weight). Skin tissue and serum chemistries were collected at day 29.

[7] = Weight gain, food consumption and condition, 4-week study of latanoprost transdermal cream in ZDF rats; format: in vivo; details: for mean weight gain for days 0 to 29: 0.3 ml daily, vs vehicle
Protocol: A controlled, repeat-dose, 4-week, dose-ranging study of latanoprost transdermal cream was conducted in Zucker Diabetic Fatty (ZDF) rats (ZDF-Lepr^fa/Crl), which are defective for the leptin receptor, obese, hyperlipidemic, and diabetic.
as §3

subcutaneous fat [8] = test: Histologic sections of skin and subcutaneous fat, ZDF rats; format: in vivo
Protocol: as §3
All sections are shown at the same magnification (scale bar at top right=500 microns). The surface of the skin is oriented toward the top of each panel.

[9] = Clinical application: person with metabolic syndrome, latanoprost transdermal 0.7% gel (Example 7); format: in vivo, human; details: 2 ml once daily, 1 to 6 months
Protocol: The following description exemplifies a clinical application of the invention to treat obesity, dyslipidemia, and type 2 diabetes mellitus in a person with metabolic syndrome.
A person is suffers from obesity, dyslipidemia, and type 2 diabetes. […] Their waist circumference is 42 inches. Their noninvasive blood pressure is 184/98. Their fasting serum glucose is […] and their glycated hemoglobin (hemoglobin A1C) is 8.1. Fasting serum lipids are as follows: triglycerides, 220 mg/dL; total cholesterol, 310 mg/dL, LDL 240 mg/dL, HDL, 35 mg/dL. Their physical exam is notable for prominent central (abdominal) obesity. In addition to medical therapy, the person's physician recommends a regimen of diet and exercise. After six months the person's weight, hemoglobin A1C, serum glucose, and serum lipids are unimproved. The physician prescribes systemic therapy with latanoprost, for example, a transdermal 0.7% gel in a metered-dose dispenser, with instructions to apply 2 ml metered dose once daily to the skin of the shoulders. After a period of time, for example from 1 to 6 months, the person's weight is reduced. Serum glucose, hemoglobin A1C, fasting serum LDL, and fasting serum triglycerides also diminish. Fasting serum HDL rises.

[10] = Human ophthalmic dose and projected human transdermal dose (FIG. 12); details: by comparison to minimum effective dose in the rat
Description: as §2

[11] = Minimum effective dose and projected systemic dose, rat (FIG. 12); format: in vivo
Description: These effects were dose-dependent, and the minimum effective dose for these effects was deemed to be the 0.05% concentration.
as §2

[12] = Oral Glucose Tolerance Test on day 29, ZDF rats; format: in vivo; details: for oral glucose tolerance: day 29; for serum glucose AUC15-120 lower compared to vehicle-treated animals: 15 to 120 minutes post-glucose load
Protocol: as §3

[13] = in vivo; cited from earlier work
[14] = Clinical application: person with dyslipidemia, oral extended-release tafluprost (Example 8); format: in vivo, human; details: oral extended-release 5 mg daily, 1 to 6 months
Description: The following description exemplifies a clinical application of the invention to reduce lipid concentrations in a patient with dyslipidemia and a history of coronary artery disease and myocardial infarction. A person with a history of obesity, hyperlipidemia, coronary artery disease, and myocardial infarction is found to have elevated serum triglycerides, total cholesterol, and low density lipoprotein, despite use of a statin. The person's physician prescribes an oral, extended-release formulation of tafluprost, for example, an extended-release tablet comprising 5 mg tafluprost, with instructions to take one capsule by mouth daily. After a period of time, for example from 1 to 6 months, the person's serum triglycerides, total cholesterol, and low density lipoprotein concentrations are reduced. Body weight is also seen to improve.

[15] = transdermal/topical to right flank skin, vs vehicle
[16] = topical 0.5% and 0.05%, day 29, vs vehicle, not statistically significant

O=C(O)CCC/C=C\C[C@@H]1[C@@H](/C=C/[C@@H](O)CCc2ccccc2)[C@H](O)C[C@@H]1O [BFA, 17-phenyl trinor prostaglandin F2α]
serum lipids ([1]; intraperitoneal, day 28): no significant effect on serum lipids
serum lipids ([1]; subcutaneous, day 28): no significant effect on serum lipids
serum triglycerides ([1]; transdermal 0.1% or 0.3%, unfasted, day 28, vs control): significantly reduced
mean weight gain for days 0 to 28 ([2]; intraperitoneal): no significant effect on weight gain
mean weight gain for days 0 to 28 ([2]; subcutaneous, right flank): no significant effect on weight gain
mean weight gain for days 0 to 28 [2, 15]: reduced weight gain significantly and in a dose-dependent manner

CC(C)OC(=O)CCC/C=C\C[C@@H]1[C@@H](/C=C/[C@@H](O)CCc2ccccc2)[C@H](O)C[C@@H]1O [BIE, 17-phenyl trinor prostaglandin F2α isopropyl ester]
systemic dose at which serum lipids and obesity responded [3]: 10 mg/m^2/d
adipocytes deep to the panniculus (subcutaneous fat [4]; topical 0.3%): profound shrinkage of adipocytes deep to the panniculus
adipocytes and adipose layer, treated (right) flank (subcutaneous fat [4]; topical 0.3%): smaller adipocytes and thinner adipocyte layers
adipocytes and adipose layer, untreated (left) flank (subcutaneous fat [4]; topical 0.3%): smaller adipocytes and thinner adipocyte layers
local versus systemic effect by histology (subcutaneous fat [4]): indicative of a systemic effect
serum lipids ([1]; subcutaneous, day 28): no significant effect on serum lipids
serum total cholesterol ([1]; transdermal 0.1%, unfasted, day 28): significantly lower
mean weight gain for days 0 to 28 ([2]; subcutaneous, right flank): no significant effect on weight gain
potency of transdermal BIE relative to transdermal BFA, for each effect (weight gain, serum lipids) ([2]; transdermal): more potent
mean weight gain for days 0 to 28 [2, 15]: reduced weight gain significantly and in a dose-dependent manner

CCCCCCCCCCC[C@@H](C[C@@H]1OC(=O)[C@H]1CCCCCC)OC(=O)[C@H](CC(C)C)NC=O [Orlistat]
loss of baseline body weight [5]: 8.8%
serum lipids and serum glucose [5]: not accompanied by any absolute improvement in serum lipids or serum glucose

CCNC(=O)CCC/C=C\C[C@@H]1[C@@H](/C=C/[C@@H](O)CCc2ccccc2)[C@H](O)C[C@@H]1O [bimatoprost, 17-phenyl trinor prostaglandin F2α ethyl amide]
adipocytes and adipose layer, treated (right) flank (subcutaneous fat [4]; topical 0.3%): smaller adipocytes and a thinner adipose layer
adipocytes and adipose layer, untreated (left) flank (subcutaneous fat [4]; topical 0.3%): resembled that of a vehicle-treated animal
local versus systemic effect by histology (subcutaneous fat [4]): local effect, but not a systemic effect
serum lipids ([1]; topical, day 28): no significant effect on serum lipids

CC(C)OC(=O)CCC/C=C\C[C@@H]1[C@@H](CC[C@@H](O)CCc2ccccc2)[C@H](O)C[C@@H]1O [latanoprost, 17-phenyl-13,14-dihydro trinor prostaglandin F2α isopropyl ester]
serum lipid benefits (triglycerides, LDL, HDL, HDL:LDL ratio) ([6]; topical 0.005%, day 29): absent
HDL:LDL ratio ([6]; topical 0.5% and 0.05%, day 29, vs vehicle, 0.5% one-sided p<0.05): dose-dependent increases
serum HDL [6, 16]: dose-dependent increases
serum LDL [6, 16]: dose-dependent reductions
serum triglycerides [6, 16]: dose-dependent reductions
mean weight gain for days 0 to 29 ([7]; topical 0.005%): dose-dependent reductions in weight gain
daily observations and skin condition ([7]; topical 0.005-0.5%, 28 days): unremarkable
mean weight gain for days 0 to 29 ([7]; topical 0.05%): dose-dependent reductions in weight gain, which were statistically significant
mean weight gain for days 0 to 29 ([7]; topical 0.5%): dose-dependent reductions in weight gain, which were statistically significant
adipocytes and adipose layer, treated (right) flank (subcutaneous fat [8]; topical 0.005%): fewer and smaller adipocytes, and a thinner adipose layer
adipocytes and adipose layer, untreated (left) flank (subcutaneous fat [8]; topical 0.005%): resembled that of a vehicle-treated animal
local versus systemic effect by histology (subcutaneous fat [8]; topical 0.005%): local effect, but not a systemic effect
adipocytes, adipose layer and dermis, treated flank (subcutaneous fat [8]; topical 0.5%): fewer and smaller adipocytes, and thinner adipose layer and dermis
adipocytes, adipose layer and dermis, untreated flank (subcutaneous fat [8]; topical 0.5%): fewer and smaller adipocytes, and thinner adipose layer and dermis
local versus systemic effect by histology (subcutaneous fat [8]; topical 0.5%): indicative of a systemic effect
fasting serum HDL [9]: rises
serum glucose, hemoglobin A1C, fasting serum LDL, fasting serum triglycerides [9]: diminish
weight [9]: reduced
predicted human transdermal dose sufficient for systemic benefit (serum lipids, diabetic condition, obesity) [10]: about 7 mg per day
minimum effective dose of topical latanoprost, as concentration ([11]; rat, equivalent of 0.05%): 0.5 mg/mL
systemic dose corresponding to minimum effective topical dose ([11]; rat, once-daily dosing, 100% serum bioavailability assumed, scaled for body surface area): 3.6 mg/m^2/d
minimum effective dose (concentration) for weight gain, serum lipids, glucose tolerance ([11]; transdermal, ZDF rat): 0.05%
oral glucose tolerance ([12]; topical 0.005%): no effect on oral glucose tolerance
serum glucose AUC15-120 lower compared to vehicle-treated animals ([12]; topical 0.05%): 12%
oral glucose tolerance ([12]; topical 0.5% and 0.05%): dose-dependent improvements in oral glucose tolerance
serum glucose AUC15-120 lower compared to vehicle-treated animals ([12]; topical 0.5%): 26%
serum elimination half-life [13]: about 17 minutes

CC(C)OC(=O)CCC/C=C\C[C@@H]1[C@@H](/C=C/C(F)(F)COc2ccccc2)[C@H](O)C[C@@H]1O [tafluprost]
body weight [14]: improve
serum triglycerides, total cholesterol, low density lipoprotein concentrations [14]: reduced
